Laboratory results from patent US20230093861A1, “RAPAMYCIN ANALOGS AS MTOR INHIBITORS” (Revolution Medicines, Inc., priority 2017, published 2023).

Key:
P-P70S6K (T389) = test: Cell based AlphaLISA assay, inhibition of P-P70S6K (T389) (mTORC1 substrate phosphorylation) in MDA-MB-468 cells; conditions: Homo sapiens, 4 h, AlphaLISA, two to four hours at 37° C., read-out: pIC50 for Inhibition of mTORC1 and mTORC2 Substrate Phosphorylation, P-P70S6K-(T389) (converted)
Procedure, shortened: (§1)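 Readout is the Alpha signal for each phosphoprotein, measured in duplicate from cell lysates with a SureFire Ultra homogeneous assay. IC50 values derive from inhibitor concentration-response curves fitted by normalized regression against controls.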

P-Akt (S473) = test: Cell based AlphaLISA assay, inhibition of P-Akt (S473) (mTORC2 substrate phosphorylation) in MDA-MB-468 cells; conditions: Homo sapiens, MDA-MB-468, 4 h, AlphaLISA, two to four hours at 37° C., read-out: pIC50 for Inhibition of mTORC1 and mTORC2 Substrate Phosphorylation, p-AKT 1/2/3 -(S473) (converted)
Procedure, shortened: as §1

P-4E-BP1 (T37/46) = test: Cell based AlphaLISA assay, inhibition of P-4E-BP1 (T37/46) (mTORC1 substrate phosphorylation) in MDA-MB-468 cells; conditions: Homo sapiens, MDA-MB-468, 4 h, AlphaLISA, two to four hours at 37° C., read-out: pIC50 for Inhibition of mTORC1 and mTORC2 Substrate Phosphorylation, P-4E-BP1-(T37/46) (converted)
Procedure, shortened: as §1

Structure (SMILES)	IC50 (P-P70S6K (T389)) [nM]	IC50 (P-Akt (S473)) [nM]	IC50 (P-4E-BP1 (T37/46)) [nM]
CCO[C@@H]1C[C@@H]([C@H](C)C[C@@H]2CC[C@H](n3cc(CCCC(=O)NCCOCCOCCOCCC(=O)NCCOCCOCCC(=O)NCCCCn4nc(-c5cc6cc(O)ccc6[nH]5)c5c(N)ncnc54)nn3)[C@H](OC)C2)OC(=O)[C@@H]2CCCCN2C(=O)C(=O)[C@]2(O)O[C@@H](CC[C@H]2C)C[C@H](OC)/C(C)=C/C=C/C=C/[C@@H](C)C[C@@H](C)C(=O)[C@H](OC)[C@H](O)/C(C)=C/[C@H]1C [Example 166]	> 1000	> 1000	> 1000
CO[C@H]1C[C@@H]2CC[C@@H](C)[C@@](O)(O2)C(=O)C(=O)N2CCCC[C@H]2C(=O)O[C@H]([C@H](C)C[C@@H]2CC[C@@H](O)[C@H](OC)C2)C/C(=N/OCc2cn(CCOCCOCCOCCOCCOCCOCCOCCOCCC(=O)NCCCCn3nc(-c4ccc5oc(N)nc5c4)c4c(N)ncnc43)nn2)[C@H](C)/C=C(\C)[C@@H](O)[C@@H](OC)C(=O)[C@H](C)C[C@H](C)/C=C/C=C/C=C/1C [Example 63]	10 to 1000	31.6 to 1000	31.6 to 1000
CO[C@H]1C[C@@H]2CC[C@@H](C)[C@@](O)(O2)C(=O)C(=O)N2CCCC[C@H]2C(=O)O[C@H]([C@H](C)C[C@@H]2CC[C@H](n3cc(COC(=O)NCCOCCOCCC(=O)NCc4cnc(N5CCN(c6ncc(C(=O)NCCCCn7nc(-c8ccc9oc(N)nc9c8)c8c(N)ncnc87)cn6)CC5)nc4)nn3)[C@H](OC)C2)CC(=O)[C@H](C)/C=C(\C)[C@@H](O)[C@@H](OC)C(=O)[C@H](C)C[C@H](C)/C=C/C=C/C=C/1C [Example 181]	< 1	3.16 to 31.6	< 3.16
CO[C@H]1C[C@@H]2CC[C@@H](C)[C@@](O)(O2)C(=O)C(=O)N2CCCC[C@H]2C(=O)O[C@H]([C@H](C)C[C@@H]2CC[C@@H](O)[C@H](OC)C2)C[C@@H](O)[C@H](C)/C=C(\C)[C@@H](O)[C@@H](OC)C(=NOCc2cn(CCOCCOCCOCCOCCOCCOCCOCCOCCC(=O)NCCCCn3nc(-c4ccc5oc(N)nc5c4)c4c(N)ncnc43)nn2)[C@H](C)C[C@H](C)/C=C/C=C/C=C/1C [Example 50]	1 to 10	31.6 to 1000	3.16 to 31.6
CO[C@H]1C[C@@H]2CC[C@@H](C)[C@@](O)(O2)C(=O)C(=O)N2CCCC[C@H]2C(=O)O[C@H]([C@H](C)C[C@@H]2CC[C@@H](OCCCCc3cn(CCOCCOCCOCCOCCOCCOCCC(=O)NCCCCn4ncc5c(N)ncnc54)nn3)[C@H](OC)C2)CC(=O)[C@H](C)/C=C(\C)[C@@H](O)[C@@H](OC)C(=O)[C@H](C)C[C@H](C)/C=C/C=C/C=C/1C [Example 6]	< 1	> 1000	> 1000
CO[C@H]1C[C@@H]2CC[C@@H](C)[C@@](O)(O2)C(=O)C(=O)N2CCCC[C@H]2C(=O)O[C@H]([C@H](C)C[C@@H]2CC[C@H](n3nncc3-c3cccc(-c4cnc(N5CCN(S(=O)(=O)CCc6cn(CCOCCOCCC(=O)NCCCCn7nc(-c8ccc9oc(N)nc9c8)c8c(N)ncnc87)nn6)CC5)nc4)c3)[C@H](OC)C2)CC(=O)[C@H](C)/C=C(\C)[C@@H](O)[C@@H](OC)C(=O)[C@H](C)C[C@H](C)/C=C/C=C/C=C/1C [Example 36]	< 1	3.16 to 31.6	3.16 to 31.6
CO[C@H]1C[C@@H]2CC[C@@H](C)[C@@](O)(O2)C(=O)C(=O)N2CCCC[C@H]2C(=O)O[C@H]([C@H](C)C[C@@H]2CC[C@@H](OCCC(C)(C)Cc3cn(CCOCCOCCOCCOCCOCCOCCOCCOCCC(=O)NCCCCn4nc(-c5ccc6oc(N)nc6c5)c5c(N)ncnc54)nn3)[C@H](OC)C2)CC(=O)[C@H](C)/C=C(\C)[C@@H](O)[C@@H](OC)C(=O)[C@H](C)C[C@H](C)/C=C/C=C/C=C/1C [Example 58]	< 1	< 3.16	< 3.16
CO[C@H]1C[C@@H]2CC[C@@H](C)[C@@](O)(O2)C(=O)C(=O)N2CCCC[C@H]2C(=O)O[C@H]([C@H](C)C[C@@H]2CC[C@@H](O)[C@H](OC)C2)C[C@@H](OC)[C@H](C)/C=C(\C)[C@@H](O)[C@@H](OC)C(=NOCc2cn(CCOCCOCCOCCOCCOCCNC(=O)CCC(=O)NCCCCn3nc(-c4ccc5oc(N)nc5c4)c4c(N)ncnc43)nn2)[C@H](C)C[C@H](C)/C=C/C=C/C=C/1C [Example 105]	1 to 10	31.6 to 1000	3.16 to 31.6
CO[C@H]1C[C@@H]2CC[C@@H](C)[C@@](O)(O2)C(=O)C(=O)N2CCCC[C@H]2C(=O)O[C@H]([C@H](C)C[C@@H]2CC[C@@H](OCCOCc3cn(CCOCCOCCOCCOCCOCCOCCOCCOCCC(=O)NCCCCn4nc(-c5ccc6oc(N)nc6c5)c5c(N(C)C)ncnc54)nn3)[C@H](OC)C2)CC(=O)[C@H](C)/C=C(\C)[C@@H](O)[C@@H](OC)C(=O)[C@H](C)C[C@H](C)/C=C/C=C/C=C/1C [Example 9]	< 1	> 1000	> 1000
CO[C@H]1C[C@@H]2CC[C@@H](C)[C@@](O)(O2)C(=O)C(=O)N2CCCC[C@H]2C(=O)O[C@H]([C@H](C)C[C@@H]2CC[C@H](n3nncc3-c3cccc(-c4cnc(N5CCN(Cc6cn(CCOCCOCCOCCOCCOCCC(=O)NCCCCn7nc(-c8ccc9oc(N)nc9c8)c8c(N)ncnc87)nn6)CC5)nc4)c3)[C@H](OC)C2)CC(=O)[C@H](C)/C=C(\C)[C@@H](O)[C@@H](OC)C(=O)[C@H](C)C[C@H](C)/C=C/C=C/C=C/1C [Example 29]	< 1	3.16 to 31.6	< 3.16
CO[C@H]1C[C@@H]2CC[C@@H](C)[C@@](O)(O2)C(=O)C(=O)N2CCCC[C@H]2C(=O)O[C@H]([C@H](C)C[C@@H]2CC[C@@H](OCCC(C)(C)Cc3cn(CCOCCOCCOCCOCCOCCOCCC(=O)NCCCCn4nc(-c5ccc6oc(N)nc6c5)c5c(N)ncnc54)nn3)[C@H](OC)C2)CC(=O)[C@H](C)/C=C(\C)[C@@H](O)[C@@H](OC)C(=O)[C@H](C)C[C@H](C)/C=C/C=C/C=C/1C [Example 59]	< 1	3.16 to 31.6	< 3.16
CO[C@H]1C[C@@H]2CC[C@@H](C)[C@@](O)(O2)C(=O)C(=O)N2CCCC[C@H]2C(=O)O[C@H]([C@H](C)C[C@@H]2CC[C@H](n3cc(-c4cnc(N5CCN(c6ncc(C(=O)NCCOCCOCCOCCC(=O)NCCCCn7nc(-c8ccc9oc(N)nc9c8)c8c(N)ncnc87)cn6)CC5)nc4)nn3)[C@H](OC)C2)CC(=O)[C@H](C)/C=C(\C)[C@@H](O)[C@@H](OC)C(=O)[C@H](C)C[C@H](C)/C=C/C=C/C=C/1C [Example 113]	< 1	3.16 to 31.6	< 3.16
COc1cccc2cc(-c3nc([C@H]4CC[C@H](C(=O)NCCOCCOCCOCCNC(=O)CCOCCOCCOCCOCCn5cc(CCCCO[C@@H]6CC[C@@H](C[C@@H](C)[C@@H]7CC(=O)[C@H](C)/C=C(\C)[C@@H](O)[C@@H](OC)C(=O)[C@H](C)C[C@H](C)/C=C/C=C/C=C(\C)[C@@H](OC)C[C@@H]8CC[C@@H](C)[C@@](O)(O8)C(=O)C(=O)N8CCCC[C@H]8C(=O)O7)C[C@H]6OC)nn5)CC4)n4ncnc(N)c34)[nH]c12 [Example 189]	< 1	3.16 to 31.6	< 3.16
CO[C@H]1C[C@@H]2CC[C@@H](C)[C@@](O)(O2)C(=O)C(=O)N2CCCC[C@H]2C(=O)O[C@H]([C@H](C)C[C@@H]2CC[C@H](n3cc(COC(=O)NCCOCCOCCOCCC(=O)NCc4cnc(N5CCN(c6ncc(C(=O)NCCCCn7nc(-c8ccc9oc(N)nc9c8)c8c(N)ncnc87)cn6)CC5)nc4)nn3)[C@H](OC)C2)CC(=O)[C@H](C)/C=C(\C)[C@@H](O)[C@@H](OC)C(=O)[C@H](C)C[C@H](C)/C=C/C=C/C=C/1C [Example 183]	< 1	3.16 to 31.6	< 3.16
CO[C@H]1C[C@@H]2CC[C@@H](C)[C@@](O)(O2)C(=O)C(=O)N2CCCC[C@H]2C(=O)O[C@H]([C@H](C)C[C@@H]2CC[C@H](n3cc(-c4cnc(N5CCN(c6ncc(C(=O)NCCOCCC(=O)NCCCCn7nc(-c8cc9cc(O)ccc9[nH]8)c8c(N)ncnc87)cn6)CC5)nc4)nn3)[C@H](OC)C2)CC(=O)[C@H](C)/C=C(\C)[C@@H](O)[C@@H](OC)C(=O)[C@H](C)C[C@H](C)/C=C/C=C/C=C/1C [Example 110]	< 1	> 1000	31.6 to 1000
CO[C@H]1C[C@@H]2CC[C@@H](C)[C@@](O)(O2)C(=O)C(=O)N2CCCC[C@H]2C(=O)O[C@H]([C@H](C)C[C@@H]2CC[C@@H](O)[C@H](OC)C2)C[C@@H](O)[C@H](C)/C=C(\C)[C@@H](O)[C@@H](OC)C(=NOCc2cn(-c3cnc(N4CCN(c5ncc(C(=O)NCCOCCC(=O)NCCCCn6nc(-c7ccc8oc(N)nc8c7)c7c(N)ncnc76)cn5)CC4)nc3)nn2)[C@H](C)C[C@H](C)/C=C/C=C/C=C/1C [Example 191]	< 1	> 1000	< 3.16
CO[C@H]1C[C@@H]2CC[C@@H](C)[C@@](O)(O2)C(=O)C(=O)N2CCCC[C@H]2C(=O)O[C@H]([C@H](C)C[C@@H]2CC[C@@H](OCc3cccc(-c4cnc(N5CCN(Cc6cn(CCOCCOCCOCCC(=O)NCCCCn7nc(-c8ccc9oc(N)nc9c8)c8c(N)ncnc87)nn6)C(CO)C5)nc4)c3)[C@H](OC)C2)CC(=O)[C@H](C)/C=C(\C)[C@@H](O)[C@@H](OC)C(=O)[C@H](C)C[C@H](C)/C=C/C=C/C=C/1C (stereo partly drawn) [Example 25]	< 1	3.16 to 31.6	< 3.16
